By IC50 is commonly meant the concentration that inhibits the measured activity by half.

This experiment concerns Jurkat cells. The experiment is described as follows: Adaptation to G2 cell cycle arrest (G1 increment) in X-ray pre-arrested Jurkat cells, flow cytometry. The experiment is classed as cell-based, human. Conditions: Table 2, concentration causing half-maximal increase of % cells in G1 phase (G1 increment), Jurkat pre-arrested by 10 Gy X-ray, 24 hours with compound. On the procedure:
Phenotype-based screening was used to measure the ability of compounds of the invention to cause adaptation to G2 cell cycle arrest in G2-arrested cells. Adaptation to G2 cell cycle arrest and re-entry into the cell cycle can result in death of the previously G2-arrested cell, or suppression (inhibition) of further proliferation of the previously G2-arrested cell. In a non-limiting embodiment, the ability to cause adaptation to G2 cell cycle arrest was measured by contacting cells in which G2 arrest had been induced by irradiation (e.g., gamma (γ) radiation or X-ray radiation), with compounds of the invention at various concentrations and, for each compound at each concentration, determining the percentage of cells that escaped G2 arrest and re-entered the cell cycle, by determining the percentage of cells in G1 phase. The IC50 value for each compound was calculated as the dosage (usually in μM) that caused half-maximal increase of the percentage of cells in G1 phase (the G1 increment) measured for that compound. Certain invention compounds were initially identified by phenotype-based screening of small molecule libraries for activity against G2-arrested cells as described above.
Jurkat cells (a human T cell lymphoma-derived cell line) were arrested at the G2 phase by X-ray irradiation at 10 Gy, and cultured for 24 hours in 10% fetal calf serum (FCS)/RPMI1640 at 37° C. with 5% CO2/air. (FCS was from Equitech-Bio, Kerrville, Tex., and RPMI1640 was from Sigma-Aldrich, St. Louis, Mo.) Test compounds were added to the medium at the indicated doses, and the cells were cultured under the conditions described above, for an additional 24 hours before harvesting.
Harvested cells were stained with Krishan's buffer (0.1% sodium citrate, 50 μg/ml propidium iodide, 20 μg/ml RNase A, 0.5% Nonidet P-40) and analyzed by flow cytometry (BD Biosciences, Franklin Lakes, N.J.) to identify the cell stage of each cell in the sample. Cells in G1 phase were identified by having […] (2N) DNA content.
The IC50 value for each compound was calculated as the dosage showing half maximal activity to induce the increase of the percentage of cells in G1 phase (the G1 increment). IC50 values were used to measure the activity of compounds and to determine structure-activity relationships.
Pre-arrested Jurkat cells were prepared as described in Example 1. Briefly, Jurkat cells were subjected to X-ray irradiation at a dose of 10 Gy, and cultured for 24 hours in 10% fetal calf serum (FCS)/RPMI1640 at 37° C. with 5% CO2/air, after which time cells were exposed to various concentrations of test compounds, and cultured under the conditions described above for an additional 24 hours before harvesting. Harvested cells were stained with Krishan's buffer (0.1% sodium citrate, 50 μg/ml propidium iodide, 20 μg/ml RNase A, 0.5% Nonidet P-40) and analyzed by flow cytometry (BD Biosciences, Franklin Lakes, N.J.) to identify the cell stage of each cell in the sample. Cells in G1 phase were identified by having […] (2N) DNA content.
The IC50 value for each compound was calculated as the dosage (concentration in μM) that caused half-maximal increase of the percentage of cells in G1 phase (the G1 increment) measured for that test compound. Table 1 below presents the structure, mass, 1H NMR values, and […] values for representative compounds.
The IC50 value for each compound was calculated as the dosage (concentration in μM) that caused half-maximal increase of the percentage of cells in G1 phase (the G1 increment) measured for that test compound. Table 2 below presents structures, IUPAC name, molecular formula, ID number (“SCID”), mass, 1H NMR values, and IC50 values for representative compounds. Table 3 presents structures, IUPAC name, molecular formula, ID number (“SCID”), mass, 1H NMR values, and IC50 values for further representative compounds.

For `CC1=C(C)C(=O)N(Nc2cc(CN3CCN(C(=O)OC(C)(C)C)CC3)c3ccc(Br)cc3n2)C1=O` [Compound S01589, tert-butyl 4-({2-[(3,4-dimethyl-2,5-dioxoazolinyl)amino]-7-bromo-4-quinolyl}methyl)piperazinecarboxylate], the IC50 is 78 nM.

On to `COCC1=C(C)C(=O)N(Nc2ccc(C(F)(F)F)c(Cl)n2)C1=O` [Compound S01599, 1-{[6-chloro-5-(trifluoromethyl)(2-pyridyl)]amino}-3-(methoxymethyl)-4-methylazoline-2,5-dione], for which the 50% inhibitory concentration (IC50) (Homo sapiens, Jurkat, 24 h) worked out at 120 nM.

Regarding `COCC1=C(C)C(=O)N(N(C)c2ccc(C(F)(F)F)c(Cl)n2)C1=O` [Compound S01600, 1-{[6-chloro-5-(trifluoromethyl)(2-pyridyl)]methylamino}-3-(methoxymethyl)-4-methylazoline-2,5-dione], where the note is “Homo sapiens, Jurkat, 24 h”, the IC50 came out at 625 nM. Consider `COC(=O)CCC1=C(C)C(=O)N(Nc2ccc(C(F)(F)F)c(Cl)n2)C1=O` [Compound S01648, Methyl 3-(1-{[6-chloro-5-(trifluoromethyl)(2-pyridyl)]amino}-4-methyl-2,5-dioxoazolin-3-yl)propanoate], for which the IC50 (Homo sapiens, Jurkat, 24 h) came out at 78 nM.

On to `CC1=C(C)C(=O)N(Nc2cc(CN3CCN(C(=O)OCc4ccccc4)CC3)c3ccc(Br)cc3n2)C1=O` [Compound S01683, Phenylmethyl4-({2-[(3,4-dimethyl-2,5-dioxoazolinyl)amino]-7-bromo-4-quinolyl}methyl)piperazinecarboxylate], for which the IC50 (Homo sapiens, Jurkat, 24 h) turned out to be 625 nM.

Take `CC1=C(C)C(=O)N(Nc2cc(Cl)nc(-c3ccccc3)c2C(F)(F)F)C1=O` [Compound S01688, 1-{[6-chloro-2-phenyl-3-(trifluoromethyl)(4-pyridyl)]amino}-3,4-dimethylazoline-2,5-dione]: the IC50 (Homo sapiens, Jurkat, 24 h) is 625 nM. On the same count and under the same terms, next, `CC1=C(C)C(=O)N(Nc2cccc(-c3cccc(C(F)(F)F)c3)n2)C1=O` [Compound S01691, 3,4-dimethyl-1-({6-[3-(trifluoromethyl)phenyl](2-pyridyl)}amino)azoline-2,5-dione]: 625 nM; `CC1=C(C)C(=O)N(Nc2cc(CN3CCN(C(=O)c4ccccc4)CC3)c3ccc(Br)cc3n2)C1=O` [Compound S01699, 1-[(7-bromo-4-{[4-(phenylcarbonyl)piperazinyl]methyl}(2-quinolyl))amino]-3,4-dimethylazoline-2,5-dione]: 625 nM. On to `CCN(CC)C(=O)CCC1=C(C)C(=O)N(Nc2ccc(C(F)(F)F)c(Cl)n2)C1=O` [Compound S01711, 3-(1-{[6-chloro-5-(trifluoromethyl)(2-pyridyl)]amino}-4-methyl-2,5-dioxoazolin-3-yl)-N,N-diethylpropanamide], for which the IC50 (Homo sapiens, Jurkat, 24 h) is 156 nM. For the compound `CCOC(=O)C(CC1=C(C)C(=O)N(Nc2ccc(C(F)(F)F)c(Cl)n2)C1=O)C(=O)OCC` [Compound S01712, Diethyl 2-[(1-{[6-chloro-5-(trifluoromethyl)(2-pyridyl)]amino}-4-methyl-2,5-dioxoazolin-3-yl)methyl]propane-1,3-dioate], the IC50 (Homo sapiens, Jurkat, 24 h) worked out at 156 nM. With `CC1=C(C)C(=O)N(Nc2cc(Cl)c(C(F)(F)F)c(-c3ccccc3)n2)C1=O` [Compound S01734], the IC50 (Homo sapiens, Jurkat, 24 h) is 450 nM. Take `CC1=C(C)C(=O)N(Nc2cc(C(F)(F)F)cc(Cl)n2)C1=O` [Compound S01737, 1-{[6-chloro-4-(trifluoromethyl)(2-pyridyl)]amino}-3,4-dimethylazoline-2,5-dione]: the IC50 (Homo sapiens, Jurkat, 24 h) was found to be 312 nM. For `CC1=C(CCC(=O)NC(C)(C)C)C(=O)N(Nc2ccc(C(F)(F)F)c(Cl)n2)C1=O` [Compound S01758, N-(tert-butyl)-3-(1-{[6-chloro-5-(trifluoromethyl)(2-pyridyl)]amino}-4-methyl-2,5-dioxoazolin-3-yl)propanamide], where the note is “Homo sapiens, Jurkat, 24 h”, the IC50 was 156 nM. Turning to `CC1=C(CCC(=O)N(C)c2ccccc2)C(=O)N(Nc2ccc(C(F)(F)F)c(Cl)n2)C1=O` [Compound S01759, 3-(1-{[6-chloro-5-(trifluoromethyl)(2-pyridyl)]amino}-4-methyl-2,5-dioxoazolin-3-yl)-N-methyl-N-phenylpropanamide], the IC50 (Homo sapiens, Jurkat, 24 h) was 625 nM. As to `CC1=C(C)C(=O)N(Nc2ccc(C(F)(F)F)c(Cc3ccccc3)n2)C1=O` [Compound S01762, 3,4-dimethyl-1-{[6-benzyl-5-(trifluoromethyl)(2-pyridyl)]amino}azoline-2,5-dione], the IC50 (Homo sapiens, Jurkat, 24 h) worked out at 625 nM. Still for that read-out and setting: next, `CON(C)C(=O)CCC1=C(C)C(=O)N(Nc2ccc(C(F)(F)F)c(Cl)n2)C1=O` [Compound S01796, 3-(1-{[6-chloro-5-(trifluoromethyl)(2-pyridyl)]amino}-4-methyl-2,5-dioxoazolin-3-yl)-N-methoxy-N-methylpropanamide]: 78 nM; `CC1=C(C)C(=O)N(Nc2cc(CN3CCN(C(=O)c4ccc(C)cc4C)CC3)c3ccc(Br)cc3n2)C1=O` [Compound S01800, 1-{[4-({4-[(2,4-dimethylphenyl)carbonyl]piperazinyl}methyl)-7-bromo (2-quinolyl)]amino}-3,4-dimethylazoline-2,5-dione]: 625 nM; `COc1ccc(C(=O)N2CCN(Cc3cc(NN4C(=O)C(C)=C(C)C4=O)nc4cc(Br)ccc34)CC2)cc1` [Compound S01801, 1-{[7-bromo-4-({4-[(4-methoxyphenyl)carbonyl]piperazinyl}methyl) (2-quinolyl)]amino}-3,4-dimethylazoline-2,5-dione]: 625 nM. Take `CC(=O)N(c1ccc(C(F)(F)F)c(Cl)n1)N1C(=O)C(C)=C(CO)C1=O` [Compound S01820, N-[6-chloro-5-(trifluoromethyl)(2-pyridyl)]-N-[4-(hydroxymethyl)-3-methyl-2,5-dioxoazolinyl]acetamide]: for the setting “Homo sapiens, Jurkat, 24 h”, the IC50 is 625 nM. As to `CC1=C(C)C(=O)N(Nc2cc(CN3CCN(S(=O)(=O)c4ccccc4)CC3)c3ccc(Br)cc3n2)C1=O` [Compound S01822, 1-[(7-bromo-4-{[4-(phenylsulfonyl)piperazinyl]methyl}(2-quinolyl))amino]-3,4-dimethylazoline-2,5-dione], the IC50 (Homo sapiens, Jurkat, 24 h) worked out at 625 nM. As to `CCOC(=O)CCC1=C(C)C(=O)N(Nc2ccc(C(F)(F)F)c(Cl)n2)C1=O` [Compound S01861, Ethyl 3-(1-{[6-chloro-5-(trifluoromethyl)(2-pyridyl)]amino}-4-methyl-2,5-dioxoazolin-3-yl) propanoate], where the note is “Homo sapiens, Jurkat, 24 h”, the IC50 is 50 nM.

Regarding `CC1=C(C)C(=O)N(Nc2cc(CNC3CCN(C(=O)OC(C)(C)C)CC3)c3ccc(Br)cc3n2)C1=O` [Compound S01862, tert-butyl 4-[({2-[(3,4-dimethyl-2,5-dioxoazolinyl)amino]-7-bromo-4-quinolyl}methyl)amino]piperidinecarboxylate], under “Homo sapiens, Jurkat, 24 h”, the IC50 came to 937 nM.

Take `CC1=C(C)C(=O)N(Nc2cc(CN3CCC(NC(=O)OC(C)(C)C)C3)c3ccc(Br)cc3n2)C1=O` (stereo not shown) [Compound S01864, N-[1-({2-[(3,4-dimethyl-2,5-dioxoazolinyl)amino]-7-bromo(4-quinolyl)}methyl)pyrrolidin-3-yl] (tert-butoxy)carboxamide]: the IC50 (Homo sapiens, Jurkat, 24 h) was 468 nM. On to `COC(=O)CCC1=C(C)C(=O)N(Nc2cc(CN3CCN(C(=O)OC(C)(C)C)CC3)c3ccc(Br)cc3n2)C1=O` [Compound S01865, Methyl 3-(1-{[4-({4-[(tert-butyl)oxycarbonyl]piperazinyl}methyl)-7-bromo (2-quinolyl)]amino}-4-methyl-2,5-dioxoazolin-3-yl)propanoate], for which the half-maximal inhibitory concentration (IC50) (Homo sapiens, Jurkat, 24 h) is 312 nM. Consider `CC1=C(C)C(=O)N(Nc2cc(CN3CCN(C(=O)c4ccc(F)cc4)CC3)c3ccc(Br)cc3n2)C1=O` [Compound S01877, 1-{[7-bromo-4-({4-[(4-fluorophenyl)carbonyl]piperazinyl}methyl) (2-quinolyl)]amino}-3,4-dimethylazoline-2,5-dione], for which the IC50 (Homo sapiens, Jurkat, 24 h) was 468 nM.

(Values after patent publication US8415357B2 (Canbas Co., Ltd., priority 2007, dated 2013).)
